Activity calls are given as the source filed them. The calls are words filed in the database; no cut-off is given here.
T1: Tyrosinase (Agaricus bisporus, UniProt O42713)
T1 sequence (O42713 whole entry): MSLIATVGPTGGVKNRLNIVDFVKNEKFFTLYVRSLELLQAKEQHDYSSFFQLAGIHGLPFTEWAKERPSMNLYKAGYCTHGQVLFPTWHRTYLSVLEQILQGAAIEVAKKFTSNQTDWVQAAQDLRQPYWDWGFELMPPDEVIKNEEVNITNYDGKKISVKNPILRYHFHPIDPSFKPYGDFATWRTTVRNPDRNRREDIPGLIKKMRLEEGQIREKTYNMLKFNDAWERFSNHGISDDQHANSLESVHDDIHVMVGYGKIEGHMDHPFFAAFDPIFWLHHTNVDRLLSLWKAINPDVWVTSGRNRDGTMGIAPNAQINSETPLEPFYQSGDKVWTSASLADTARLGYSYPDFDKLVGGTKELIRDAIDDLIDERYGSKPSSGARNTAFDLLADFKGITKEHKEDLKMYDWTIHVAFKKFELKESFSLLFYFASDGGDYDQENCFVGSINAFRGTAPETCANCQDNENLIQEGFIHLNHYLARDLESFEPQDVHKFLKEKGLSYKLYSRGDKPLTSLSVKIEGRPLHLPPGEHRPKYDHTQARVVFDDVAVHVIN

T2: Tyrosinase (Agaricus bisporus) (UniProt O42713)
T2 sequence (whole entry): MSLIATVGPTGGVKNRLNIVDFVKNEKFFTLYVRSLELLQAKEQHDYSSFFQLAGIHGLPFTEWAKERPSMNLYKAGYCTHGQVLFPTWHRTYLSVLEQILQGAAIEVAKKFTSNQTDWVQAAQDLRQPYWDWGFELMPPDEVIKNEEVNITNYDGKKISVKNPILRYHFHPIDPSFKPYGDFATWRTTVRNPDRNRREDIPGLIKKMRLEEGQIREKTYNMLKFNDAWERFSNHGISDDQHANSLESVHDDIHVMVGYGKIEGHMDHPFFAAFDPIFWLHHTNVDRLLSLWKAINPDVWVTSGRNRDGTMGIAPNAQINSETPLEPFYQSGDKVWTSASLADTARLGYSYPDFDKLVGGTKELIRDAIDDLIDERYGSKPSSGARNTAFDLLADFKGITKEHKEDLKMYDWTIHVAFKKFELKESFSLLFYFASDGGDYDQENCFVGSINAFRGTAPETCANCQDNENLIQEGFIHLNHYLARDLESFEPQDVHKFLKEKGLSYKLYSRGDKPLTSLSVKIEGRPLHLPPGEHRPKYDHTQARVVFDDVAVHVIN


Legend:
[1] = tested on: MV4-11; test: Antiproliferative activity against human MV4-11 cells incubated for 72 hrs by MTT assay; type: functional, cell-based; settings: MV4-11, 72 h
[2] = Lipophilicity, chromatographic lipophilicity index of the compound in methanol by UPLC-MS/MS; type: physicochemical
[3] = tested on: A549; test: Antiproliferative activity against human A549 cells incubated for 72 hrs by SRB assay; type: functional, cell-based; settings: A549, 72 h
[4] = tested on: B16-F10; test: Antiproliferative activity against mouse B16F10 cells incubated for 72 hrs by MTT assay; type: functional, cell-based; settings: B16-F10, 72 h
[5] = molecular target: T1, Tyrosinase; test: Inhibition of mushroom tyrosinase using L-dopa as substrate incubated for 30 mins by spectrophotometric method
[6] = tested on: A549; test: Induction of apoptosis in human A549 cells assessed as fold increase in caspase 3/7 activation using Ac-DEVD-ACC as fluorogenic substrate at 5 ug/ml incubated for 72 hrs by fluorescence assay relative to control; type: functional
[7] = tested on: A549; test: Potency index, ratio of chlorambucil to ratio of test compound for induction of apoptosis in human A549 cells; type: functional
[8] = tested on: MCF7; test: Antiproliferative activity against human MCF7 cells incubated for 72 hrs by SRB assay; type: functional, cell-based; settings: MCF7, 72 h
[9] = tested on: BALB/3T3; test: Antiproliferative activity against mouse BALB/3T3 cells incubated for 72 hrs by SRB assay; type: cell-based; settings: BALB/3T3, 72 h
[10] = tested on: MCF7; test: Antiproliferative activity against human MCF7 cells reduction in cell viability; type: functional, cell-based
[11] = tested on: HL-60; test: Antiproliferative activity against human HL60 cells incubated for 48 hrs by MTS assay; type: functional, cell-based; settings: HL-60, 48 h
[12] = tested on: MCF7; test: Antiproliferative activity against human MCF7 cells reduction in cell viability relative to control; type: functional
[13] = molecular target: T2, Tyrosinase (Agaricus bisporus); test: Ratio of IC50 for ascorbic acid to IC50 for test compound for inhibition of mushroom tyrosinase using L-dopa as substrate incubated for 30 mins by spectrophotometric method
[14] = molecular target: T2, Tyrosinase (Agaricus bisporus); test: Ratio of IC50 for kojic acid to IC50 for test compound for inhibition of mushroom tyrosinase using L-dopa as substrate incubated for 30 mins by spectrophotometric method
[15] = molecular target: T2, Tyrosinase (Agaricus bisporus); test: Inhibition of mushroom tyrosinase assessed as reduction in peak intensity at 25 mM using L-dopa as substrate incubated for 30 mins by UV-vis spectra analysis
[16] = tested on: HCT-116; test: Antiproliferative activity against human HCT116 cells by MTT assay; type: functional, cell-based
[17] = tested on: A549; test: Potency index, ratio of camptothecin to ratio of test compound for induction of apoptosis in human A549 cells; type: functional
[18] = molecular target: T2, Tyrosinase (Agaricus bisporus); test: Inhibition of mushroom tyrosinase assessed as reduction in peak intensity at 15 mM using L-dopa as substrate incubated for 30 mins by UV-vis spectra analysis
[19] = compound: CN1[C@@H]2CC[C@H]1C/C(=N/Nc1nc(-c3ccc(Cl)c(Cl)c3)cs1)C2; test: (§1) Noncompetitive-inhibition of mushroom tyrosinase assessed as Km at 0.1 to 0.25 mM using 0.1 to 0.25 mM L-dopa as substrate incubated for 20 mins by Lineweaver-Burk double reciprocal plot analysis; settings: Agaricus bisporus
[20] = compound: CN1[C@@H]2CC[C@H]1C/C(=N/Nc1nc(-c3ccc(Br)cc3)cs1)C2; test: as §1; settings: Agaricus bisporus
[21] = compound: CN1[C@@H]2CC[C@H]1C/C(=N/Nc1nc(-c3ccc(N=[N+]=[N-])cc3)cs1)C2; test: as §1; settings: Agaricus bisporus
[22] = compound: CN1[C@@H]2CC[C@H]1C/C(=N/Nc1nc(-c3ccc(Cl)cc3Cl)cs1)C2; test: as §1; settings: Agaricus bisporus
[23] = compound: CN1[C@@H]2CC[C@H]1C/C(=N/Nc1nc(-c3ccc(Cl)cc3)cs1)C2; test: as §1; settings: Agaricus bisporus
[24] = compound: Cc1ccc(-c2csc(N/N=C3\C[C@H]4CC[C@@H](C3)N4C)n2)cc1; test: (§2) Noncompetitive-inhibition of mushroom tyrosinase assessed as Vmax at 0.1 to 0.25 mM using 0.1 to 0.25 mM L-dopa as substrate incubated for 20 mins by Lineweaver-Burk double reciprocal plot analysis; settings: Agaricus bisporus
[25] = compound: CN1[C@@H]2CC[C@H]1C/C(=N/Nc1nc(-c3ccc(Cl)c(Cl)c3)cs1)C2; test: as §2; settings: Agaricus bisporus
[26] = compound: CN1[C@@H]2CC[C@H]1C/C(=N/Nc1nc(-c3ccc(C(F)(F)F)cc3)cs1)C2; test: as §2; settings: Agaricus bisporus
[27] = compound: CN1[C@@H]2CC[C@H]1C/C(=N/Nc1nc(-c3ccc(Br)cc3)cs1)C2; test: as §2; settings: Agaricus bisporus
[28] = compound: CN1[C@@H]2CC[C@H]1C/C(=N/Nc1nc(-c3ccc(F)cc3)cs1)C2; test: as §2; settings: Agaricus bisporus
[29] = compound: CN1[C@@H]2CC[C@H]1C/C(=N/Nc1nc(-c3ccc(N=[N+]=[N-])cc3)cs1)C2; test: as §2; settings: Agaricus bisporus
[30] = compound: CN1[C@@H]2CC[C@H]1C/C(=N/Nc1nc(-c3ccc(Cl)cc3Cl)cs1)C2; test: as §2; settings: Agaricus bisporus
[31] = compound: CN1[C@@H]2CC[C@H]1C/C(=N/Nc1nc(-c3ccc(Cl)cc3)cs1)C2; test: as §2; settings: Agaricus bisporus

Molecule	IC50 [1]	logKw [2]	IC50 [3]	IC50 [4]	IC50 [5]	IC50 [8]	IC50 [9]	other results
CN1[C@@H]2CC[C@H]1C/C(=N/Nc1nc(-c3ccc(Br)cc3)cs1)C2	8.36 µM	-3.066	8.15 µM	5.44 µM	85 µM	7.67 µM	8.18 µM	fold change (FC) [6]: 3 - 5; Ratio [7]: 3 - 5
CN1[C@@H]2CC[C@H]1C/C(=N/Nc1nc(-c3ccc(C(F)(F)F)cc3)cs1)C2	6.68 µM	-3.25	7.54 µM	5.86 µM	33.7 µM	6.02 µM	8.41 µM	fold change (FC) [6]: 3 - 5; Ratio [7]: 3 - 5
CN1[C@@H]2CC[C@H]1C/C(=N/Nc1nc(-c3ccc(N=[N+]=[N-])cc3)cs1)C2	9.87 µM	-3.151	11 µM	5.91 µM	72.3 µM	8.94 µM	9.05 µM	Activity [6]: inactive
O=C(O)CCCc1ccc(N(CCCl)CCCl)cc1 [CHLORAMBUCIL]	8.55 µM		72.8 µM	12.6 µM		69.3 µM	69.7 µM	
CN1[C@@H]2CC[C@H]1C/C(=N/Nc1nc(-c3ccc(F)cc3)cs1)C2	13.7 µM	-3.058	42.8 µM	> 15.1 µM	123 µM	19.2 µM	19.1 µM	Activity [6]: inactive
CN1[C@@H]2CC[C@H]1/C(=C\c1cccc(Br)c1)C(=O)/C2=C/c1cccc(Br)c1								IC50 [10]: 13.1 µM; IC50 [11]: 3.39 µM
CN1[C@@H]2CC[C@H]1CC(=O)C2								inhibition (INH) [12]: 26.98%
ClCCN(CCCl)c1ccc(/C=N/Nc2nc(-c3ccc(Br)cc3)cs2)cc1	1.27 µM							
CN1[C@@H]2CC[C@H]1C/C(=N/Nc1nc(-c3ccc(Cl)cc3Cl)cs1)C2	6.82 µM	-3.79	7.47 µM	5.48 µM	3.51 µM	7.05 µM	8.16 µM	Ratio IC50 [13]: 120; Ratio IC50 [14]: 22; fold change (FC) [6]: 3 - 5; Ratio [7]: 3 - 5; inhibition [15]: Active
Cc1ccc(-c2csc(N/N=C3\C[C@H]4CC[C@@H](C3)N4C)n2)cc1	10.1 µM	-2.654	17.3 µM	10.6 µM	101 µM	11.1 µM	10.2 µM	Activity [6]: inactive
CN1[C@@H]2CC[C@H]1C/C(=N/Nc1nc(-c3ccc(Cl)cc3)cs1)C2	9.37 µM	-2.844	9.48 µM	> 14.4 µM	133 µM	9.08 µM	9.2 µM	Activity [6]: inactive
CCN1[C@@H]2CC[C@H]1/C(=C\c1ccc(OC)c(OC)c1)C(=O)/C2=C/c1ccc(OC)c(OC)c1								IC50 [16]: 0.01 µM
C/C(=N\Nc1nc(-c2ccc(Cl)c(Cl)c2)cs1)c1ccc(Nc2nc(N)nc(N)n2)cc1	3.56 µM							IC50 [10]: 7.59 µM
CN1[C@@H]2CC[C@H]1C/C(=N/Nc1nc(-c3ccc(Cl)c(Cl)c3)cs1)C2	8.29 µM	-4.024	7.89 µM	5.43 µM	3.22 µM	7.19 µM	8.58 µM	Ratio IC50 [13]: 120; Ratio IC50 [14]: 22; Ratio [17]: 2; inhibition [18]: Active; fold change (FC) [6]: 25; Ratio [7]: 18
Tyrosinase (Agaricus bisporus), O42713 (protein) MSLIATVGPTGGVKNRLNIVDFVKNEKFFTLYVRSLELLQAKEQHDYSSFFQLAGIHGLPFTEWAKERPSMNLYKAGYCTHGQVLFPTWHRTYLSVLEQILQGAAIEVAKKFTSNQTDWVQAAQDLRQPYWDWGFELMPPDEVIKNEEVNITNYDGKKISVKNPILRYHFHPIDPSFKPYGDFATWRTTVRNPDRNRREDIPGLIKKMRLEEGQIREKTYNMLKFNDAWERFSNHGISDDQHANSLESVHDDIHVMVGYGKIEGHMDHPFFAAFDPIFWLHHTNVDRLLSLWKAINPDVWVTSGRNRDGTMGIAPNAQINSETPLEPFYQSGDKVWTSASLADTARLGYSYPDFDKLVGGTKELIRDAIDDLIDERYGSKPSSGARNTAFDLLADFKGITKEHKEDLKMYDWTIHVAFKKFELKESFSLLFYFASDGGDYDQENCFVGSINAFRGTAPETCANCQDNENLIQEGFIHLNHYLARDLESFEPQDVHKFLKEKGLSYKLYSRGDKPLTSLSVKIEGRPLHLPPGEHRPKYDHTQARVVFDDVAVHVIN								Km [19]: 180 µM; Km [20]: 184 µM; Km [21]: 466 µM; Km [22]: 0.278 µM; Km [23]: 360 µM; Vmax [24]: -16.5 abs/min; Vmax [25]: 5.59 abs/min; Vmax [26]: -12.8 abs/min; Vmax [27]: 2.53 abs/min; Vmax [28]: -1.58 abs/min; Vmax [29]: 5.05 abs/min; Vmax [30]: 0.0126 abs/min; Vmax [31]: 6.24 abs/min

From ChEMBL document CHEMBL4350971, “Discovery of tropinone-thiazole derivatives as potent caspase 3/7 activators, and noncompetitive tyrosinase inhibitors with high antiproliferative activity: Rational design, one-pot tricomponent synthesis, and lipophilicity determination” (Eur J Med Chem, 2019)
